Laboratory results from US7244722B2, “Amino-substituted 1H-pyrazin-2-ones and 1H-quinoxalin-2-ones” (Biovitrum AB, priority 2002, dated 2007).
Counter-ions that a name gives are not always drawn.

System: not given
Assay: not given
Settings: not given

| SMILES | melting point |
| --- | --- |
| CN(C)c1cccc(OCCn2ccnc(N3CCNCC3)c2=O)c1 (as salt: fumarate) [Example 20, 1-{2-[3-(N,N-Dimethylamino)phenoxy]ethyl}-3-(1-piperazinyl)-pyrazin-2(1H)-one] | 180 to 191 °C |
| O=c1c(N2CCNCC2)nccn1CCOc1cc(F)c(F)cc1F (as salt: hydrochloride) [Example 3, 3-(1-Piperazinyl)-1-[2-(2,4,5-trifluorophenoxy)ethyl]-2(1H)-pyrazinone] | 193 to 195 °C |
| O=c1c(N2CCNCC2)nccn1CCCOc1cc(F)c(F)cc1F (as salt: trifluoroacetate) [Example 59, 1-[3-(2,4,5-Trifluorophenoxy)propyl]-3-(1-piperazinyl)-2(1H)-pyrazinone] | 100.3 to 100.9 °C (dec.) |
| O=c1c(N2CCNCC2)nccn1CCOc1c(F)c(F)cc(F)c1F (as salt: hydrochloride) [Example 4, 3-(1-Piperazinyl)-1-[2-(2,3,5,6-tetrafluorophenoxy)ethyl]-2(1H)-pyrazinone] | 196 to 198 °C (dec.) |
| O=c1c(N2CCNCC2)nccn1CCOc1ccc([N+](=O)[O-])cc1F (as salt: hydrochloride) [Example 1, 1-[2-(2-Fluoro-4-nitrophenoxy)ethyl]-3-(1-piperazinyl)-2(1H)-pyrazinone] | 105 to 108 °C |
| O=c1c(N2CCNCC2)nccn1CCCCOc1cc(F)c(F)cc1F (as salt: trifluoroacetate) [Example 58, 1-[4-(2,4,5-Trifluorophenoxy)butyl]-3-(1-piperazinyl)-2(1H)-pyrazinone] | 113.4 to 116.6 °C (dec.) |
| O=c1c(N2CCNCC2)nccn1CCOc1cc(F)cc(F)c1 [Example 25, 1-[2-(3,5-Difluorophenoxy)ethyl]-3-(1-piperazinyl)-2(1H)-pyrazinone] | 119 to 121 °C |
| C=CCc1ccc(OCCn2ccnc(N3CCNCC3)c2=O)c(OC)c1 (as salt: maleate) [Example 65, 1-[2-(4-Allyl-2-methoxyphenoxy)ethyl]-3-piperazin-1-ylpyrazin-2(1H)-one] | 158 to 160 °C |
| O=c1c(N2CCN(Cc3ccccc3)CC2)nccn1CCOc1cc(F)c(F)cc1F (as salt: hydrochloride) [Example 63, 3-(4-Benzylpiperazin-1-yl)-1-[2-(2,4,5-trifluorophenoxy)ethyl]pyrazin-2(1H)-one] | 214 to 214.5 °C |
| CC(c1ccccc1)N1CCN(c2nccn(CCOc3cc(F)c(F)cc3F)c2=O)CC1 (racemic) (as salt: hydrochloride) [Example 60, 3-[4-(1-Phenylethyl)piperazin-1-yl]-1-[2-(2,4,5-trifluorophenoxy)ethyl]pyrazin-2(1H)-one] | 137 to 139 °C |

Now from value to compound:

| melting point | SMILES |
| --- | --- |
| 174 to 176 °C | O=c1c(N2CCNCC2)nccn1CCOc1noc2ccccc12 (as salt: hydrochloride) [Example 9, 1-[2-(1,2-Benzisoxazol-3-yloxy)ethyl]-3-(1-piperazinyl)-2(1H)-pyrazinone] |
| 49 to 52 °C | N#Cc1cccc(OCCn2ccnc(N3CCNCC3)c2=O)c1 [Example 7, 1-[2-(3-Cyanophenoxy)ethyl]-3-(1-piperazinyl)-2(1H)-pyrazinone] |
| 69 to 70 °C | O=C(c1ccccc1)c1cccc(OCCn2ccnc(N3CCNCC3)c2=O)c1 [Example 24, 1-[2-(3-Benzoylphenoxy)ethyl]-3-(1-piperazinyl)-2(1H)-pyrazinone] |
| 171 °C | O=c1c(N2CCNCC2)nccn1CCOc1cccc([N+](=O)[O-])c1 [Example 23, 1-[2-(3-Nitrophenoxy)ethyl]-3-(1-piperazinyl)-2(1H)-pyrazinone] |

Target: T1, human 5-HT2A receptor (Homo sapiens, UniProt P28223)
T1 construct: expressed in transfected cells
T1 sequence (P28223 whole entry): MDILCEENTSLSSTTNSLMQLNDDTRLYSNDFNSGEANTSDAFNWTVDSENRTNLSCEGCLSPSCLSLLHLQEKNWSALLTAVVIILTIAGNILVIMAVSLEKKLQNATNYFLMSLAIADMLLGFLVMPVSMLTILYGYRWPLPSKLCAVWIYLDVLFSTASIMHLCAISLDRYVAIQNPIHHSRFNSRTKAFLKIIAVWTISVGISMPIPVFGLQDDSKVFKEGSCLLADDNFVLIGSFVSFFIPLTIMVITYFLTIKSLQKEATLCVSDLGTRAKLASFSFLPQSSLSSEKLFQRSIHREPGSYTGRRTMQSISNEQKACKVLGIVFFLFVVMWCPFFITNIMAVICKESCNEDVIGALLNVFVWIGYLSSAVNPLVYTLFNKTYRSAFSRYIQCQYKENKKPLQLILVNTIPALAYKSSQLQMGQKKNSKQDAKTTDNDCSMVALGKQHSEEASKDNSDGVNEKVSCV
Assay: 5-HT2A receptor affinity assay: competition with 3H-labeled LSD on membranes of transfected CHO cells
Settings: displacement of 3H-LSD; membranes from transfected CHO cell line stably expressing the human 5-HT2A receptor; non-specific binding defined with mianserin (5 μM)
Description: The 5-HT2A receptor affinity of compounds in the Examples was determined in competition experiments, where the ability of each compound in serial dilution to displace ^3H-labeled lysergic diethyl amide (LSD), bound to membranes prepared from a transfected CHO cell line stably expressing the human 5-HT2A receptor protein, was measured after rapid filtration through glass fiber filters. Non-specific binding was defined using mianserin (5 μM). The 5-HT2A receptor affinity values are expressed as Ki values.

| SMILES | Ki [nM] |
| --- | --- |
| O=c1c(N2CCN(CCc3ccccc3)CC2)nccn1CCOc1cc(F)c(F)cc1F [Example 62, 3-[4-(2-Phenylethyl)piperazin-1-yl-]1-[2-(2,4,5-trifluorophenoxy)ethyl]pyrazin-2(1H)-one] | 0.15 |
| O=c1c(N2CCN(Cc3ccccc3)CC2)nccn1CCOc1cc(F)c(F)cc1F [Example 63, 3-(4-Benzylpiperazin-1-yl)-1-[2-(2,4,5-trifluorophenoxy)ethyl]pyrazin-2(1H)-one] | 1.4 |
| O=c1c(N2CCNCC2)nccn1CCOc1ccc(F)c(F)c1F [Example 13, 3-(1-Piperazinyl)-1-[2-(2,3,4-trifluorophenoxy)ethyl]-2(1H)-pyrazinone] | 29 |
| O=c1c(N2CCNCC2)nccn1CCOc1cc(F)c(F)cc1F [Example 3, 3-(1-Piperazinyl)-1-[2-(2,4,5-trifluorophenoxy)ethyl]-2(1H)-pyrazinone] | 2.2 |

Next, values leading:

| Ki [nM] | SMILES |
| --- | --- |
| 152 | O=c1ccc2ccc(OCCn3ccnc(N4CCNCC4)c3=O)cc2o1 [Example 2, 1-{2-[(2-Oxo-2H-chromen-7-yl)oxy]ethyl}-3-(1-piperazinyl)-2(1H)-pyrazinone] |
| 3.6 | O=C(c1ccccc1)c1cccc(OCCn2ccnc(N3CCNCC3)c2=O)c1 [Example 24, 1-[2-(3-Benzoylphenoxy)ethyl]-3-(1-piperazinyl)-2(1H)-pyrazinone] |
| 4.4 | O=c1c(N2CCNCC2)nccn1CCOc1ccc(Oc2ccccc2)cc1 [Example 31, 1-[2-{4-Phenoxy-(phenoxy)}ethyl]-3-(1-piperazinyl)-2(1H)-pyrazinone] |
| 13 | O=c1c(N2CCNCC2)nccn1CCOc1cccc([N+](=O)[O-])c1 [Example 23, 1-[2-(3-Nitrophenoxy)ethyl]-3-(1-piperazinyl)-2(1H)-pyrazinone] |
| 8 | O=c1c(N2CCNCC2)nccn1CCOc1ccc(C(F)(F)F)cc1 [Example 29, 1-[2-(4-Trifluoromethylphenoxy)ethyl]-3-(1-piperazinyl)-2(1H)-pyrazinone] |
| 2.5 | CCCCOc1cccc(OCCn2ccnc(N3CCNCC3)c2=O)c1 [Example 11, 1-[2-(3-n-Butyloxyphenoxy)ethyl]-3-(1-piperazinyl)-2(1H)-pyrazinone] |
